From patent publication US20090215650A1, “SUBSTRATES WITH STABLE SURFACE CHEMISTRY FOR BIOLOGICAL MEMBRANE ARRAYS AND METHOD FOR FABRICATING THEREOF” (priority 2002, published 2009)

What was measured:
[1] = molecular target: Neurotensin receptor subtype I (human, NTR1) (Homo sapiens, UniProt P30989); assay: BT-NT binding to NTR1 arrays on coated glass slides, competition with unlabeled neurotensin; conditions: 2 nM BT-NT; for binding specificity of BT-NT: competition with 4 μM unlabeled neurotensin
Chain of Neurotensin receptor subtype I (human, NTR1) (P30989 whole entry): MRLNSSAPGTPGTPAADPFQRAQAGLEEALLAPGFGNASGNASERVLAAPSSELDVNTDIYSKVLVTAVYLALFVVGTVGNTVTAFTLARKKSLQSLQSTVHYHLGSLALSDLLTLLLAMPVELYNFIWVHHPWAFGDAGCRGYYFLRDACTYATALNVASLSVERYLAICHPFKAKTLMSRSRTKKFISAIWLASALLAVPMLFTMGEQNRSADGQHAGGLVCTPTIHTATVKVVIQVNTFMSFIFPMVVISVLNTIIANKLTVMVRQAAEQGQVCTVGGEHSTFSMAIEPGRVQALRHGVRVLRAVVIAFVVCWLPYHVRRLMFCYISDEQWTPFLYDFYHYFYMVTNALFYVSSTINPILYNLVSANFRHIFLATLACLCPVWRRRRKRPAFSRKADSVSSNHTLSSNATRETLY
Description: Neurotensin receptor subtype I (human, NTR1) was purchased from Perkin Elmer Life Sciences (Boston, Mass.) and was received as a membrane associated suspension in a buffer. Printing was carried out using a quill-pin printer (Cartesian Technologies Model PS 5000) equipped with software for programmable aspiration and dispensing. After printing the arrays were incubated in a humid chamber at room temperature for one hour, and then used for ligand binding experiments. Two different binding solutions, 2 nM BT-NT in binding buffer in either the absence or presence of neurotensin, were used to examine the total binding of fluorescently labeled neurotensin (2 nM BT-NT), and the specific inhibition of the binding of BT-NT in the presence of 4 μM unlabeled neurotensin. The binding buffer contained 50 mM Tris-HCl, pH 7.4, 10 mM MgCl2, 1 mM EDTA, 0.1% BSA. The incubation time for binding was one hour. After incubation, the slides were rinsed, dried, and examined using a Genipix scanner.
Glass slides were coated by incubating the slide with a 3 ml solution containing 1 mg/ml polymer (poly-lysine, 46 kDa, or polyethyleneimine, 50 kDa) in 0.1×PBS buffer for 30 minutes at room temperature, followed by rinsing with water and drying under nitrogen. […] Using a Telechem quill pin CMP5, we fabricated GPCR arrays.
Neurotensin receptor subtype 1 (human, NTR1) was purchased from Perkin Elmer Life Sciences (Boston, Mass.) and was received as a membrane associated suspension in a buffer. Printing was carried out using a quill-pin printer (Cartesian Technologies Model PS 5000) equipped with software for programmable aspiration and dispensing. After printing the arrays were incubated in a humid chamber at room temperature for one hour, and then used for ligand binding experiments. […] After incubation, the slides were rinsed, dried, and imaged in a fluorescence scanner. […]

streptavidin = streptavidin (Streptomyces avidinii, UniProt P22629); assay: Binding of cy3-streptavidin to biotin-x-DHPE lipid arrays in presence of BSA; conditions: BSA 0.01%-1%; DPPC/DMPC/2% biotin-x-DHPE arrays on GAPS slide
Description: Seven 5×5 arrays of DPPC/DMPC/2% biotin-x-DHPE were printed onto a single Corning GAPS slide (data not shown). After incubation 3 sets of lipid arrays were pre-incubated with TR-BSA before the addition of Cy3-streptavidin. A second set of 3 arrays was incubated with TR-BSA together with cy3-streptavidin, while one array was covered with a solution of cy3-streptavidin. After 30 minutes the slides were rinsed, dried and imaged. The cy5 channel signal was used to monitor the adsorption of TR-BSA, and the cy3 channel signal was used to monitor the binding of cy3-streptavidin.

[2] = two reactive surfaces (epoxy silane, thiol-silane)

Row | binding specificity of BT-NT ([1]; poly-lysine and polyethyleneimine surfaces (both)) [%] | binding specificity of BT-NT [1, 2] | total binding signal [1, 2] | Substance | effect on background level (streptavidin) | effect on binding specificity of cy3-streptavidin (streptavidin)
1 | ~90 | 75-90% | relatively low | Bodipy-TMR-neurotensin [BT-NT] |  | 
2 |  |  |  | bovine serum albumin [BSA] | reduces the background level in most cases | does not significantly decrease the binding specificity
